Broadly, the density is mass per unit of volume. In general, logD refers to lipophilicity at a set pH, counting ionised and neutral species. A higher logD goes with a more lipophilic compound.

The nature of data set [1]: Physical-chemical characterization: viscosity and density. The format is physicochemical. Here is the method:
(§1) More than a dozen esters and amide derivatives of DTPA were synthesized. […] C2E5 is an oil with a viscosity of 163 cps at 25° C. […] The density of C2E5 was determined to be 1.119 g/mL. […] The intrinsic partition coefficient (log P) of C2E5 is difficult to measure due to its instability at high pH. Thus, the log D6.0 was determined by measuring the partitioning of C2E5 into octanol and water phases.
The solvent evaporation method was subsequently used to prepare the C2E5 non-aqueous gel formulations.

Data set [2] in a line: Pharmacokinetics of neat C2E5 and C2E5 non-aqueous gel, plasma LC/MS/MS (Example 9). Conditions: SD rat plasma; 200 mg/kg. The format is in vivo, Sprague-Dawley (SD) rats. Here is the method: All animal studies were conducted according to a protocol approved by the University of North Carolina at Chapel Hill Institutional Animal Care and Use Committee (IACUC). Ten-week-old adult female Sprague-Dawley (SD) rats weighing from 200 to 300 g were used in these studies (Charles River Labs, Raleigh, N.C.). Food and water were given ad libitum. The animal room was kept at a controlled temperature (23° C.) and light cycle (light exposure from 8 AM to 8 PM). For the duration of the study, the rats were housed in metabolic cages individually with urine and feces collection until euthanasia at 24 h after neat C2E5 or C2E5 gel application.
Neat C2E5 (i.e., only C2E5) at a dose of 200 mg/kg was applied using a 1 mL syringe to the same size area as a positive control. […] The mass of neat C2E5 or C2E5 gel applied was recorded for each animal to permit actual dose determination. […] The animals were observed during the study period and the body weight of the animals was recorded at pre-dose and prior to necropsy.
Acidified plasma samples (100 μL) were first treated with 25 μL of ^13C—C2E5 stable-label internal standard (1000 ng/mL), followed by precipitation with MeCN (400 μL). […] After separation by liquid chromatography, the analytes and internal standard were detected on a triple quadrupole mass spectrometer using heated electrospray ionization (HESI-II) in the positive-ion mode. […]

Data set [3] is described as follows: log D by partitioning into octanol and water phases. The format is physicochemical. Conditions: pH 6.0, octanol and water. Here is the method: as §1

SMILES strings stand for the structures.

In turn, `CCOC(=O)CN(CCN(CC(=O)OCC)CC(=O)OCC)CCN(CC(=O)OCC)CC(=O)OCC` [Formulation C2E5, penta-substituted ethyl ester of DTPA] gave a density in data set [1] of 1.119 g/mL. In data set [1] (25° C.), this compound displayed a viscosity of 163 cps. Moreover, in data set [2], the “C2E1 in plasma samples” value is recorded as “not detected”. In data set [3], this compound returned a logD of 2.2.

The values are drawn from patent US20140243411A1 (priority 2011, published 2014).
